Laboratory results published in ChEMBL document CHEMBL4393685, “Synthesis and evaluation of pyrimidoindole analogs in umbilical cord blood ex vivo expansion” (Eur J Med Chem, 2019).
Activity calls are given as the source filed them. The rule behind the calls is not given here.

How the values were obtained:
[1] = Stimulation of ex vivo expansion of human CD34+ cells assessed as colony forming cells at 165 nM measured after 14 days; type: functional
[2] = Cytotoxicity against human CD34+ cells assessed as live cells at 165 nM incubated for 7 days supplemented with 50% fresh medium containing cytokines every other day by flow cytometry (reference value: 77.3 +/- 2%); type: cell-based; conditions: read-out: Activity
Homo sapiens [3] = species: Homo sapiens; assay: Stimulation of ex vivo expansion of human CD34+ assessed as increase in granulocyte differentiation at 165 nM measured after 14 days; type: functional
[4] = Stimulation of ex vivo expansion of human CD34+ cells assessed as CD34+ cells at 165 nM incubated for 7 days supplemented with 50% fresh medium containing cytokines every other day by flow cytometry (reference value: 25.9 +/- 0.01%); type: functional
[5] = Stimulation of ex vivo expansion of human CD34+ cells assessed as CD34+CD38-CD90+[…] cells at 165 nM incubated for 7 days supplemented with 50% fresh medium containing cytokines every other day by flow cytometry (reference value: 2.98 +/- 0.5%); type: functional
[6] = Stimulation of ex vivo expansion of human CD34+ cells assessed as increase in CD34+ cells at 165 nM incubated for 7 days supplemented with 50% fresh medium containing cytokines every other day by flow cytometry relative to base line; type: functional
[7] = Stimulation of ex vivo expansion of human CD34+ cells assessed as CD34+CD38- level at 0.01 to 1 uM incubated for 7 days supplemented with 50% fresh medium containing cytokines every other day by flow cytometry (reference value: 19.10 +/- 0.35%); type: functional
[8] = Stimulation of ex vivo expansion of human CD34+ cells assessed as CD34+CD38-CD90+[…]CD49F+ cells at 165 nM incubated for 7 days supplemented with 50% fresh medium containing cytokines every other day by flow cytometry (reference value: 0.16 +/- 0.04%); type: functional
[9] = Stimulation of ex vivo expansion of human CD34+ cells assessed as CD34+/CD38- cells at 165 nM incubated for 7 days supplemented with 50% fresh medium containing cytokines every other day by flow cytometry (reference value: 19.16 +/- 0.32%); type: functional
[10] = Stimulation of ex vivo expansion of human CD34+ cells assessed as increase in expansion of total cells at 165 nM incubated for 7 days supplemented with 50% fresh medium containing cytokines every other day by flow cytometry relative to base line; type: functional
[11] = Stimulation of ex vivo expansion of human CD34+ cells assessed as CD34+CD38- level incubated for 7 days supplemented with 50% fresh medium containing cytokines every other day by flow cytometry; type: functional; conditions: Homo sapiens, 168 h; read-out: EC50
[12] = Stimulation of ex vivo expansion of human CD34+ cells assessed as increase in CD34+CD38- cells at 165 nM incubated for 7 days supplemented with 50% fresh medium containing cytokines every other day by flow cytometry relative to control; type: functional
[13] = Stimulation of ex vivo expansion of human CD34+ cells assessed as increase in CD34+CD38- cells at 165 nM incubated for 7 days supplemented with 50% fresh medium containing cytokines every other day by flow cytometry relative to base line; type: functional
Homo sapiens [14] = species: Homo sapiens; assay: Stimulation of ex vivo expansion of human CD34+ cells assessed as increase in granulocyte/macrophage differentiation at 165 nM measured after 14 days; type: functional
Homo sapiens [15] = species: Homo sapiens; assay: Stimulation of ex vivo expansion of human CD34+ cells assessed as decrease in burst forming units of erythroid at 165 nM measured after 14 days; type: functional
[16] = Stimulation of ex vivo expansion of human CD34+CD38- cells assessed as increase in expansion of total cells at 165 nM incubated for 7 days supplemented with 50% fresh medium containing cytokines every other day by flow cytometry relative to control; type: functional
[17] = Stimulation of ex vivo expansion of human CD34+ cells assessed as increase in expansion of total cells at 165 nM incubated for 7 days supplemented with 50% fresh medium containing cytokines every other day by flow cytometry relative to control; type: functional
THP-1 = assay: Cytotoxicity against human THP1 cells assessed as reduction cell viability up to 1600 nM after 4 days by CCK8 assay; type: cell-based; conditions: thp-1, 96 h
[18] = Stimulation of ex vivo expansion of human CD34+ cells assessed as increase in colony forming cells at 165 nM after 14 days relative to control; type: functional
[19] = Stimulation of ex vivo expansion of human CD34+ cells assessed as CD34+/CD38- level at 0.01 to 1 uM incubated for 7 days supplemented with 50% fresh medium containing cytokines every other day by flow cytometry relative to control; type: functional

In the case of `COc1cc2c(cc1OC)CN(CCNc1nc(Cc3ccccc3)nc3[nH]c4cc(-c5nnn(C)n5)ccc4c13)CC2`, the Activity [1] is reported as 254 CFU, the viability at 168 h, 0.165 µM [2] is reported as 80.6% and the Activity (Homo sapiens [3]) is reported as “Active”. For the same compound, the Activity [4] was 60.33%, the Activity [5] was 4.05% and the “fold change (FC)” value [6] was 5. The Activity [7] was 69.69%, the Activity [8] was 0.21% and the Activity [9] was 58%. The “fold change (FC)” value [10] was 5, the EC50 [11] was 30 nM and the “fold change (FC)” value [12] was 4.4. The “fold change (FC)” value [13] was 4 - 5, the Activity (Homo sapiens [14]) was “Active” and the Activity (Homo sapiens [15]) was “Active”. The “fold change (FC)” value [16] was 4.9, the “fold change (FC)” value [17] was 2.4 and the Activity (THP-1) was “Non-Toxic”. The “fold change (FC)” value [18] was 1.4 and the “fold change (FC)” value [19] was 3.65.
